Assay results taken from publication PMC11397024, “Strategic Fluorination to Achieve a Potent, Selective, Metabolically Stable, and Orally Bioavailable Inhibitor of CSNK2” (Molecules, 2024).
Converted amounts (≈) assume the structure as drawn. “Also recorded” adds a separate entry of the source.

Columns and labels:
[1] = Unbound fraction in mouse plasma; type: in vitro ADME; settings: read-out: unbound fraction in mouse plasma (fu)
192 human kinases = assay: NanoBRET K192 panel, whole panel; type: cell-based; settings: six off-target kinases, dose-response experiments
Description: The K192 selectivity assay was run according to the Draft Promega technical manual, NanoBRET^TM Target Engagement K192 Kinase Selectivity System. Reagents were supplied by Promega (Promega NP 4101). For the assay, DNA from the prepared kinase vector panel plates A and B were mixed with Fugene in 96-well plates (Corning 3917) and incubated at room temperature for 30 min. The NanoLuc® Low control vector pNL1.1.CMV [Nluc/CMV] Vector (Cat.# N1091) and the transfection control vector NanoLuc®-HIPK2 Fusion Vector (Cat.# NV3221) were used as controls.
HEK293 cells were grown to 75–95% confluency in DMEM (Gibco 11995-065) supplemented with FBS (Avantor 97068-085) at 37 °C in 5% RH. […]
On day two of the assay, 5 μL of 20X K10 tracer was prepared and added at concentrations recommended by Promega. […] After 2–3 min, the plate was shaken at 300 RPM for 10 s, and the donor emission wavelength (450 nm) and acceptor emission wavelength (610 nm) were measured using the Glomax® Discover System.
As a quality check, the donor signal-to-background ratio was calculated for each individual kinase by dividing the mean donor signal for each kinase by the mean donor signal for the signal-to-background control wells. Fractional occupancy of the test drug for each kinase was determined using the following formula:Occupancy (%) = [1 − (Sample − Bottom)/(Top − Bottom)] × 100 where

Kinetic solubility = type: physicochemical; settings: phosphate buffered saline, 22 °C, aqueous buffer, kinetic from dmso stock; PBS pH 7.4 from DMSO stock
Description: Phosphate buffered saline (50 mL, PBS, Fisher (Pittsburgh, PA, USA), pH 7.4) was added to HPLC-grade H2O (450 mL) for a total dilution factor of 1:10 and a final PBS concentration of 1×. […] The final DMSO concentration was 2.0%, and the maximum theoretical compound concentration was 200 μM. The filter plate was heat-sealed for a 24 h incubation. The sample was placed on a rotary shaker (200 rpm) for 24 h at ambient temperature (21.6–22.8 °C) and then vacuum-filtered. All filtrates were injected into a chemiluminescent nitrogen detector for quantification. The equimolar nitrogen response of the detector was calibrated using standards that span the dynamic range of the instrument from 0.08 to 4500 μg/mL nitrogen. The filtrates were quantified with respect to this calibration curve. The calculated solubility values were corrected for background nitrogen present in DMSO and the media used to prepare the samples.

[2] = Liver microsomal stability, human; type: in vitro ADME; settings: pH 7.4, human liver microsomes, five time points over 1 h, read-out: HLM CLint
[3] = Hepatocyte stability, human; type: in vitro ADME; settings: cryopreserved hepatocytes, over 2 h
Description: Human cryopreserved hepatocytes were supplied by BioIVT (lot QZW, 10 pooled donors, Westbury, NY, USA). Mouse cryopreserved hepatocytes were supplied by BioIVT (lot ZPG, pooled male CD-1). Vials of cryopreserved hepatocytes were removed from storage and thawed in a 37 °C water bath with gentle shaking, and then the contents were poured into a 50 mL thawing medium conical tube. Vials were centrifuged at 100× g for 10 min at room temperature. The thawing medium was aspirated, and hepatocytes were resuspended with a serum-free incubation medium to yield ~1.5 × 10^6 cells/mL. Cell viability and density were counted using AO/PI fluorescence staining, and then cells were diluted with a serum-free incubation medium to a working cell density of 0.5 × 10^6 viable cells/mL. Aliquots of 198 μL of hepatocytes were dispensed into each well of a 96-well noncoated plate. The plate was placed in an incubator for approximately 10 min. […] Peak areas were determined from extracted ion chromatograms, and the slope value, k, was determined by linear regression of the natural logarithm of the remaining percentage of the parent drug vs. incubation time curve. The intrinsic clearance (CLint in μL/min/10^6 cells) was calculated using the relationship CLint = kV/N, where V is the incubation volume (0.2 mL) and N is the number of hepatocytes per well (0.1 × 10^6 cells). […]

CSNK2 = assay: In vitro inhibition of phosphorylation of EIF2S2; type: cell-based, Human; settings: A549-ACE2 cells, 1 μM and 5 μM, 24 h, Western blot

For `CCC(=O)Nc1cc(Nc2cc(NC3CC3)n3ncc(C#N)c3n2)c(F)cc1N1CCC[C@H](NC)C1` [Compound 2, (S)-N-(5-((3-cyano-7-(cyclopropylamino)pyrazolo[1,5-a]pyrimidin-5-yl)amino)-4-fluoro-2-(3-(methylamino)piperidin-1-yl)phenyl)propionamide], which fraction unbound [1] is on record?
The fraction unbound was 0.0605.

And the “selectivity compared to CSNK2A1 and CSNK2A2” value (192 human kinases)?
The value was no less than 1000 fold.

And the solubility kinetic at 24 h (Kinetic solubility)?
The solubility kinetic at 24 h was 59 µg/mL (≈ 120 µM).

And the CLint scaled at 5 μM [2]?
Its CLint scaled at 5 μM is 12.9 mL/min/kg.

What about the CLint scaled at 1 μM [3] of the same compound?
The CLint scaled at 1 μM was 6.9 mL/min/kg.

What about the “phosphorylation levels of the CSNK2 substrate EIF2S2” value (CSNK2) of the same compound?
The value was “inhibited; also recorded: dose-dependent reduction”.
